The source of these data is US20010056104A1, “Treatment of ocular hypertension and glaucoma” (priority 2000, published 2001).

Data set [1] relates to prostaglandin receptor sites in bovine corpus luteal membranes. The data set can be described thus: Ligand binding assay in bovine corpus luteal membranes. To be noted: for displacement of bound 3H-unoprostone isopropyl by unlabeled competing ligand: competition studies. Here is the method: (§1) In ligand binding studies, the specificity of labeled unoprostone isopropyl and the metabolite binding to prostaglandin receptor sites in bovine corpus luteal membranes was determined. This tissue expresses most of the PG receptors including an abundance of FP receptors. In signal transduction studies, the mobilization of intracellular calcium using Fluorescence Imaging technique in the primary culture of human ciliary muscle cells and cyclic AMP generation in rabbit iris-ciliary body was measured.
This method is well described in the literature. […] Free unbound ligands were separated by rapid filtration using a millipore filtration assembly. Membrane bound radioactivity retained by the filter was counted. It is important to define the following terms for appreciation of the binding data:
Total binding is defined as the amount bound in the absence of unlabeled ligand.
Specific binding is defined as the binding displaced by unlabeled ligand.
Non-specific binding is the binding not displaced by unlabeled ligand.

Data set [2] has as its system human ciliary muscle cells. The data set can be described thus: Intracellular calcium mobilization (Fura 2-AM) in human ciliary muscle cells. The format is cell-based. To be noted: FP receptor agonist control, concentration not given. The procedure: as §1
Human ciliary muscle cells at confluency were loaded with Fura 2-AM. Cells in a petri dish were put in a jacketed chamber mounted on the microscope platform. The chamber was maintained at 37° C. by thermostatically controlled water circulating through the chamber jacket. The cells were then exposed to the excitation wavelengths of 334 and 380 nm with an emission wavelength of 510 nm. Cells were perfused with HEPES buffer with or without test compounds. The intracellular calcium was visualized and photographed using Attofluor RatioVision software program and Zeiss fluorescence microscope.
Background: Calcium flux is commonly read through the fluorescence of an indicator in the cells.

Data set [3] concerns the target EP2-receptors (Cavia porcellus, UniProt A0A286XDB1). The data set can be described thus: EP2-receptor activity, guinea-pig ileum twitch inhibition. The format is cell-based. Conditions: for EC50: smooth muscle bath, guinea-pig ileum. An excerpt:
Segments of guinea-pig ileum were used to study the effect on EP2-receptors. Male guinea pigs were killed with a blow to the head and bled from the carotid arteries. Circular rings (2-3 mm wide) were taken from the ileum about 10 cm from the caecum, A resting tension of 1 g was applied and the preparation was stimulated by using a Gras S88 stimulator delivering trains of square pulses (frequency 7.5 Hz, pulse duration 0.1 msec, train duration 4 sec) to two parallel platinum electrodes in the bath. The voltage over the electrodes was approximately 20V, and the interval between trains was 100 seconds. The peak contractile force at each stimulation train was measured. Test compounds were added cumulatively, and the inhibitory effect on the muscle twitch was evaluated. […] Concentration-effect curves were fitted to the data using the logistic sigmoid function.

Data set [4] concerns the target T1, EP3-receptors (Cavia porcellus, UniProt A0A286XLZ9).
T1 sequence (A0A286XLZ9 with tags, fused parts or gaps): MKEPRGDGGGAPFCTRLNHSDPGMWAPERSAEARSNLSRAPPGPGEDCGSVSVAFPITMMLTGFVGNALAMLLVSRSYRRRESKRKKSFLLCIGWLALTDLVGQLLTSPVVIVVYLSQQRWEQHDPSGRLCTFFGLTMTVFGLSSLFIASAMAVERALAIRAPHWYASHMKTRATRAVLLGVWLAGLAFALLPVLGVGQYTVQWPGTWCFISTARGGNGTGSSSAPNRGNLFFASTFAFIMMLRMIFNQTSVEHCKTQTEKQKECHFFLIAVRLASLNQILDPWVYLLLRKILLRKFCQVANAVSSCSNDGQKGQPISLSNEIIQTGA
As to the kind of experiment: EP3-receptor activity, guinea-pig vas deferens. It is filed as cell-based. Conditions: for EC50: smooth muscle bath, guinea-pig vas deferens. Here is the method: Guinea-pig vas deferens was used to assess the effect on EP3-receptors. Tissue segments of about 10 mm were mounted in tissue baths and the experiments were performed essentially in the same way as described for the guinea-pig circular ileum. Concentration-effect curves were fitted to the data using the logistic sigmoid function.

Data set [5] deals with T2, EP1-receptor (Bos taurus, UniProt F1MUY4).
T2 sequence (F1MUY4 1-407): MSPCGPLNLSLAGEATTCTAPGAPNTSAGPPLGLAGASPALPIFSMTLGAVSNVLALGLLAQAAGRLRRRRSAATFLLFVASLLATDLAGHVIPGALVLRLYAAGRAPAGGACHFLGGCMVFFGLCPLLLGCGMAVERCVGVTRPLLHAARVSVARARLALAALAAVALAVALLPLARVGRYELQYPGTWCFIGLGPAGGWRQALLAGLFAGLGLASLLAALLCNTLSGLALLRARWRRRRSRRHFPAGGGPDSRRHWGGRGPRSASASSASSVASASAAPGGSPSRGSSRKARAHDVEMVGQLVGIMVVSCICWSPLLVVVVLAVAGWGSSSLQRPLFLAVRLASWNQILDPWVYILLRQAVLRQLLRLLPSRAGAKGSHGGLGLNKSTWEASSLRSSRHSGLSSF
As to the kind of experiment: EP1-receptor activity, bovine iris sphincter muscle. It is filed as cell-based. From the text: Iris sphincter muscles from bovine eyes were used for studies of EP1-receptor responses. Freshly enucleated bovine eyes were transported on ice from a slaughterhouse.
(§2) Concentration-effect curves were fitted to the data using the logistic sigmoid function.

In data set [6] the target is FP-receptor (Felis catus, UniProt A0ABI7XJ69). The data set can be described thus: Functional FP-receptor study, cat iris sphincter muscle contraction. It is filed as cell-based. Conditions: for EC50: text restating Table I, read-out: concentration needed to stimulate the FP-receptor at 50% efficacy. Here is the method:
Functional FP-receptor studies were performed using iris sphincter muscles from cat eyes. The eyes were either used directly after enucleation or stored in ice cold saline overnight. The iris sphincter muscles were prepared, cut in halfs, and mounted in thermostated (37° C.) tissue baths with oxygenated modified Kreb's solution containing indomethacin (2.8×10^−6 M), atropine (10^−7 M) and propranolol (10^−7 M). A resting tension of 150 mg was applied, and the contractile force was measured isometrically after cumulative dosing of test compounds. A manual or automated tissue bath system (Buxco, STC 400) was used for the experiments. For each tissue sample the maximal response was normalized to 100%. The mean response of two to four different preparations was calculated.
as §2

For data set [7] the following is noted: cynomolgus monkeys; cited from earlier work.
For data set [8] the following is noted: treated for about three or more months; cited from earlier work.
The target of data set [9] is FP receptor (Homo sapiens, UniProt P43088). To be noted: background statement; cited from earlier work.
Sequence of FP receptor (P43088 whole entry): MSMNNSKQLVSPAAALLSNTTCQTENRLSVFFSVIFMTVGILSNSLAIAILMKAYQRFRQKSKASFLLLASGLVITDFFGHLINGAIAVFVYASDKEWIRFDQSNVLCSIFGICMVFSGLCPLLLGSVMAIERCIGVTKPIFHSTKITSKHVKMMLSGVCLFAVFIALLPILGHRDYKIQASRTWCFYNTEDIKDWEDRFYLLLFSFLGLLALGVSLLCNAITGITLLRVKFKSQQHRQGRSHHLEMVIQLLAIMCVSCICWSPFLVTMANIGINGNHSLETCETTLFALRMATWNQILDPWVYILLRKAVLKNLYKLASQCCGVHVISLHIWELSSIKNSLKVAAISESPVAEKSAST
Where [10] appears, read: competing ligand PGF2α 0.062 μM.
[11] abbreviates: radioligand conc. 8.0 nM (3H-PGF2α).

Sequence of FP-receptor (A0ABI7XJ69 entry or part of it): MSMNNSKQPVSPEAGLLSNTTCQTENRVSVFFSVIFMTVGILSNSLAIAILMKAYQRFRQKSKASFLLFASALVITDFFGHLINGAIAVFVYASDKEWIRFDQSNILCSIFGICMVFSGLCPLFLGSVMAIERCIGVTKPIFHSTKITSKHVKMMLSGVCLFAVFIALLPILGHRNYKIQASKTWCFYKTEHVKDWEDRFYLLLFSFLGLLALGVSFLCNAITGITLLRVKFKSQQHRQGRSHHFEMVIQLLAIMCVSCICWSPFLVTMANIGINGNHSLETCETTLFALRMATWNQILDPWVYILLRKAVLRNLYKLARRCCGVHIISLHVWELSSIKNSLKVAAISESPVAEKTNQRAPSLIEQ
Sequence of EP2-receptors (A0A286XDB1 1-359): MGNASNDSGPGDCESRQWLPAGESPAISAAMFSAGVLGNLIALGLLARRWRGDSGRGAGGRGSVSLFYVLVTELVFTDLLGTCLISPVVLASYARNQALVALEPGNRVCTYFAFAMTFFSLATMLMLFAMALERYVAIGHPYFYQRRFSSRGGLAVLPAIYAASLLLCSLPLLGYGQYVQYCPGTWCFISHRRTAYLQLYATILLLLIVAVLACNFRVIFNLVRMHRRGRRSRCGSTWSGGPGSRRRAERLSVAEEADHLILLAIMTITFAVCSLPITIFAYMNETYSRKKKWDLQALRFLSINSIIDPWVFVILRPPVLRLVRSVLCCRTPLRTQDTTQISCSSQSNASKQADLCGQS

Turning to 17-Phenyl trinor PGE1, the “displacement of bound 3H-unoprostone isopropyl by unlabeled competing ligand” value in [1] is reported as “did not displace”.

As to `O=C(O)CCC/C=C\C[C@@H]1[C@@H](/C=C/[C@@H](O)COc2cccc(C(F)(F)F)c2)[C@H](O)C[C@@H]1O` (racemic) [Fluprostenol], the “mobilization of intracellular calcium” value in data set [2] is “mobilized calcium”.

For `O=C(O)CCCC=CCC1C(O)CC(O)C1CCC(=O)CCc1ccccc1` (centres unmarked) [15-keto Latanoprost Acid], in data set [3] (in words), the “activity on EP2 receptor” value was “virtually no activity”. Further, the EC50 in data set [3] is more than 100 µM; in data set [4], more than 100 µM; in [5] (read-out: EC50 EP1, smooth muscle bath, bovine iris sphincter), 28 µM; in data set [6], 0.26 µM. Besides, the “activity on EP3 receptor” value in [4] (in words) is listed as “virtually no activity”. In addition, the “activity on EP1 receptor” value in [5] (in words) is listed as “virtually no activity”. Moreover, the “potency on the FP receptor relative to latanoprost acid” value in data set [6] (from Table I EC50 values) is “at least ten times less potent”.

In the case of `O=C(O)CCCCCCC1C(=O)NC(=O)N1CCC(O)C1CCCCC1` (centres unmarked) [BW245C], in data set [1], the “displacement of bound 3H-unoprostone isopropyl by unlabeled competing ligand” value was “did not displace”.

As to `CCCC1([C@H](O)C/C=C/[C@H]2[C@H](O)CC(=O)[C@@H]2CCCCCCC(=O)OC)CCC1` [Butaprost], the “displacement of bound 3H-unoprostone isopropyl by unlabeled competing ligand” value in [1] is listed as “did not displace”.

With `O=C(O)CCC/C=C\C[C@@H]1[C@@H](CC[C@@H](O)CCc2ccccc2)[C@H](O)C[C@@H]1O` [Latanoprost Acid], the EC50 in data set [3] came out at 530 µM; in [4], 28 µM; in [6] it was 0.01 µM.

Consider `CC(C)OC(=O)CCC/C=C\C[C@@H]1[C@@H](CC[C@@H](O)CCc2ccccc2)[C@H](O)C[C@@H]1O` [Latanoprost, 13,14-dihydro-17-phenyl-18,19,20-trinor PGF2α isopropyl ester], for which the iridial pigmentation result in data set [7] is listed as “induced increased iridial pigmentation”. In data set [8], the “human patients with brown pigmentation of the iris” value is given as not below 10%. For the same compound, the “specific binding affinity for the FP receptor” value in data set [9] is recorded as “substantial specific binding affinity”. For the same compound, the “receptor selectivity (FP vs other prostaglandin receptors)” value in [6] (from Table I) is reported as “selective agonist for the FP receptor”.

Turning to `CCCCCC(O)C=CC1C(O)CC(=O)C1CC=CCCCC(=O)OC(C)C` (centres unmarked) [PGE2-IE], the iridial pigmentation entry in [7] is reported as “induced increased iridial pigmentation”.

As to `CCCCC[C@H](O)/C=C/[C@@H]1[C@@H](C/C=C\CCCC(=O)OC(C)C)[C@@H](O)C[C@H]1O` [PGF2α-IE], the iridial pigmentation result in [7] is recorded as “induced increased iridial pigmentation”.

As to `CCCCC[C@H](O)/C=C/[C@@H]1[C@@H](C/C=C\CCCC(=O)O)[C@@H](O)C[C@H]1O` [PGF2α], the “specific binding to bovine corpus luteal membranes (in words)” value in [1] was “bound specifically”. Moreover, the “Specific Binding (3H-PGF2α)” value was 0.07 fmoles/mg Protein in [1] (setting [10]), 0.15 fmoles/mg Protein in data set [1] (competing ligand PGF2α 0.25 μM), 0.25 fmoles/mg Protein in [1] (competing ligand PGF2α 0.5 μM) and 0.42 fmoles/mg Protein in [1] (competing ligand PGF2α 8.0 μM). Also, the Total 3H-PGF2α binding in data set [1] (setting [10]), in data set [1] (competing ligand PGF2α 0.25 μM), in data set [1] (competing ligand PGF2α 0.5 μM) and in data set [1] (competing ligand PGF2α 8.0 μM) was 0.56 fmol/mg protein in each case. Also, the “displacement of bound 3H-unoprostone isopropyl by unlabeled competing ligand” value in [1] is “did not displace”. Further, the “Specific Binding” value is on record as 120.0 ± 15.0 fmoles/mg protein in data set [1] (radioligand conc. 2.0 nM) and 423.0 ± 40.0 fmoles/mg protein in data set [1] (setting [11]). Moreover, the results for the “Total Binding” value in data set [1] (radioligand conc. 2.0 nM), in data set [1] (radioligand conc. 4.0 nM) and in data set [1] (setting [11]) were 150.0 ± 16.0 fmoles/mg protein, 325.0 ± 25.0 fmoles/mg protein and 505.0 ± 75.0 fmoles/mg protein, respectively.

As for `CCCCC[C@H](O)/C=C/[C@@H]1[C@@H](C/C=C\CCCC(=O)O)[C@H]2CO[C@@H]1C2` [U46619], the “displacement of bound 3H-unoprostone isopropyl by unlabeled competing ligand” value in data set [1] is recorded as “did not displace”.

Take `CC#CCC(C)[C@H](O)/C=C/[C@@H]1[C@H]2C/C(=C/CCCC(=O)O)C[C@H]2C[C@H]1O` (some centres unmarked) [iloprost]: the “displacement of bound 3H-unoprostone isopropyl by unlabeled competing ligand” value in data set [1] was “did not displace”.
